Earlier results on 1 molecule are cited in patent publication US10551383B2, “Methods of detecting a polypeptide having anaplastic lymphoma kinase activity in kidney cancer” (Cell Signaling Technology, Inc., priority 2010, dated 2020).

Molecules are shown by their SMILES.

The test system of this series is HGF-stimulated Madin-Darby Canine Kidney (MDCK) cells. Particulars: disclosed in U.S. Pub. No. 2008/0300273.

On to `C[C@@H](Oc1cc(-c2cnn(C3CCNCC3)c2)cnc1N)c1c(Cl)ccc(F)c1Cl` [PF-02341066, Crizotinib], for which the cell colony scattering entry is listed as “able to reduce cell colony scattering”.
